Earlier results on one compound are cited in patent publication US20130028962A1, “Triggered Cargo Release from Nanoparticle Stabilized Liposomes” (THE REGENTS OF THE UNIVERSITY OF CALIFORNIA, priority 2010, published 2013).

This data set has as its system MRSA bacteria. The conditions noted are these: against MRSA bacteria.

`CN[C@H](CC(C)C)C(=O)N[C@H]1C(=O)N[C@@H](CC(N)=O)C(=O)N[C@H]2C(=O)N[C@H]3C(=O)N[C@H](C(=O)N[C@H](C(=O)O)c4cc(O)cc(O)c4-c4cc3ccc4O)[C@H](O)c3ccc(c(Cl)c3)Oc3cc2cc(c3O[C@@H]2O[C@H](CO)[C@@H](O)[C@H](O)[C@H]2O[C@H]2C[C@](C)(N)[C@H](O)[C@H](C)O2)Oc2ccc(cc2Cl)[C@H]1O` [vancomycin]: the “minimal inhibitory concentration (MIC)” value is on record as “about 2 μg/mL”.
